Data as given in the OPERA property sets (Mansouri et al. 2018).
In brackets after ≈: the same amount, converted by molar mass.

details: not given

First: Brc1ccc(-c2ccccc2)cc1
Second: COc1ccc(C=[N+]([O-])c2ccccc2)cc1
The logP of the first is higher: 4.96 for the first, 1.94 for the second.

Going from `COc1ccc(N=c2snc3sc(S(N)(=O)=O)nn23)cc1` to `NS(=O)(=O)c1nn2c(=Nc3cccc(Cl)c3)snc2s1`, the logP rises from 2.93 to 3.5.

Going from `CC(=O)c1ccc2cc(C(C)C(=O)OCC(=O)N(C)C)ccc2c1` (centres undefined) to `CC(=O)Oc1ccc(OCCN(C)C)cc1C`, the logP falls from 2.05 to 1.64.

Going from `CN(C)CCCN1c2ccccc2Sc2ccccc21.Cl` to `CN(C)c1cnn(-c2ccccc2)c(=O)c1Cl`, the logP falls from 2.94 to 1.55.

First: CCCCCCCCCCCCCCO
Second: CCCCCCCc1ccccc1
The logP of the first is higher: 6.03 for the first, 5.37 for the second.

First: C=CC(=O)NCCCN1CCOCC1
Second: CCN1CCC(CNC(=O)c2cc(S(=O)(=O)CC)ccc2OC)C1 (centres undefined)
The logP of the first is lower: -0.53 for the first, 1.31 for the second.

First: COC(=O)C(C)Oc1ccc(Oc2ccc(Cl)cc2Cl)cc1 (centres undefined)
Second: CC(=O)Oc1ccc(NC(=O)C(Cl)Cl)cc1
The logP of the first is higher: 4.62 for the first, 1.9 for the second.

Compared with `CC(C)(C)C(=O)OCn1ncc2c(O)ncnc21`, `CCN1CCC[C@H]1CNC(=O)c1c(OC)ccc(Br)c1OC` is higher in logP: 1.07 for the first, 2.1 for the second.

First: C=COCCn1cnc2[nH]c(=O)n(C)c(=N)c21
Second: O=C(Nc1ccccc1)n1cc(F)c(=O)[nH]c1=O
The logP of the first is lower: -0.78 for the first, 1.5 for the second.

Going from `CCOCCOCCO` to `Nc1nc(=O)n([C@H]2CC[C@@H](CO)O2)cc1F`, the logP falls from -0.54 to -1.09.

First: BrC=C(Br)Br
Second: Cc1cc(C)nc(NC(=O)NS(=O)(=O)c2ccccc2C(=O)OC2COC2)n1
The logP of the first is higher: 3.2 for the first, 1.1 for the second.

For `Cc1nc(N)nc(C(Cl)(Cl)Cl)n1`, the logP was 1.77.

First: O=P1(N(CCCl)CCCl)NCCCO1 (centres undefined)
Second: OCC(S)CS (centres undefined)
The solubility of the first is 4.6-fold lower: 153 mM (≈ 40000 µg/mL) for the first, 700 mM (≈ 87000 µg/mL) for the second.

same assay, conditions: 20 °C

Going from `C/C=C/CCC` to `C=CCOC(C)=O`, the solubility rises from 0.594 mM (≈ 50 µg/mL) to 280 mM (≈ 28000 µg/mL) (470-fold).

Compared with `CC(C)OC(=O)c1ccccc1C(=O)OC(C)C`, `CCC(=O)c1ccccc1` is 11-fold higher in solubility: 1.33 mM (≈ 332 µg/mL) for the first, 14.9 mM (≈ 2000 µg/mL) for the second.

`COc1c(Cl)cc(Cl)cc1Cl` gave a solubility of 0.0473 mM (≈ 10 µg/mL).

same assay, conditions: 22 °C

In the case of `CCOC(=O)CC(SP(=O)(OC)OC)C(=O)OCC` (centres undefined), the solubility is reported as 23.9 mM (≈ 7500 µg/mL).

same assay, conditions: 23 °C

With `NC(=O)c1c(Cl)cccc1Cl` the solubility was 14.4 mM (≈ 2730 µg/mL).

same assay, conditions: 23.0 °C

First: CC(=O)C(C)(C)O
Second: CC(=O)C1CC=C(C)CC1 (centres undefined)
The log10 OH rate constant (cm³/molecule/s) of the first is lower: -12 for the first, -9.89 for the second.

Compared with `CC1=CC[C@@H]2[C@H]3[C@@H](C(C)C)CC[C@]2(C)[C@@H]13`, `CCCCOCC(C)O` (centres undefined) is lower in log10 OH rate constant (cm³/molecule/s): -10 for the first, -10.4 for the second.

`CCOCCOCCO` gave a log10 OH rate constant (cm³/molecule/s) of -10.2.

same assay, conditions: 24.0 °C

For `CCOCCC(=O)OCC`, the log10 OH rate constant (cm³/molecule/s) was -10.6.

same assay, conditions: 25 °C

Going from `Oc1ccc(N=Nc2ccc(N=Nc3ccccc3)c3ccccc23)cc1` to `c1ccc2c(c1)ccc1ccc3ccccc3c12`, the solubility falls from 0.000979 mM (≈ 0.345 µg/mL) to 1.51e-05 mM (≈ 0.00345 µg/mL) (65-fold).

Going from `FC(Cl)C(F)(F)F` (centres undefined) to `Clc1ccc(-c2ccc(Cl)c(Cl)c2Cl)cc1Cl`, the solubility falls from 11 mM (≈ 1500 µg/mL) to 1.04e-05 mM (≈ 0.0034 µg/mL).

`CC(=O)C=CC1=C(C)CCCC1(C)C` and `C=Cc1cccc(C)c1` are within 1.5-fold of each other in solubility: 0.879 mM (≈ 169 µg/mL) for the first, 0.753 mM (≈ 89 µg/mL) for the second.

First: O=[N+]([O-])c1c2ccccc2cc2ccccc12
Second: c1ccc2c(c1)[nH]c1ccccc12
The solubility of the first is 21-fold lower: 0.000511 mM (≈ 0.114 µg/mL) for the first, 0.0108 mM (≈ 1.8 µg/mL) for the second.

First: ClC(Cl)=C(Cl)C(Cl)=C(Cl)Cl
Second: ClC1=C(Cl)C(Cl)(Cl)C(Cl)=C1Cl
The solubility of the first is 1.9-fold higher: 0.0123 mM (≈ 3.2 µg/mL) for the first, 0.0066 mM (≈ 1.8 µg/mL) for the second.

First: COC(=O)COc1ccc(Cl)cc1Cl
Second: Oc1ccc(Cl)c(Cl)c1
The solubility of the first is 52-fold lower: 1.1 mM (≈ 258 µg/mL) for the first, 56.8 mM (≈ 9260 µg/mL) for the second.

First: Oc1nc(O)nc(O)n1
Second: O=C(O)c1cccc(C(=O)O)n1
The solubility of the first is 1.9-fold lower: 15.5 mM (≈ 2000 µg/mL) for the first, 29.9 mM (≈ 5000 µg/mL) for the second.

Compared with `CCCCCCCCCCCCCCCC`, `CCOC` is far higher in solubility: 3.97e-06 mM (≈ 0.0009 µg/mL) for the first, 832 mM (≈ 50000 µg/mL) for the second.

Going from `NNC(=O)c1ccncc1` to `COCCOC(=O)c1ccccc1C(=O)OCCOC`, the solubility falls from 1020 mM (≈ 140000 µg/mL) to 30.1 mM (≈ 8500 µg/mL) (34-fold).

Going from `Cc1ccccc1C(C)C` to `Cc1ccccc1C`, the solubility rises from 0.174 mM (≈ 23.3 µg/mL) to 1.68 mM (≈ 178 µg/mL) (9.7-fold).

Compared with `Cc1cccc(C)c1N`, `Clc1cccc(Cl)c1Cl` is 690-fold lower in solubility: 68 mM (≈ 8240 µg/mL) for the first, 0.0992 mM (≈ 18 µg/mL) for the second.

Compared with `Cl[C@H]1[C@H](Cl)[C@@H](Cl)[C@@H](Cl)[C@H](Cl)[C@H]1Cl` (racemic), `Clc1cc2c(oc3c(Cl)c(Cl)c(Cl)c(Cl)c32)c(Cl)c1Cl` is far lower in solubility: 0.00942 mM (≈ 2.74 µg/mL) for the first, 3.3e-09 mM (≈ 1.35e-06 µg/mL) for the second.

`CN(C)c1ccc(N=NS(=O)(=O)[O-])cc1.[Na+]` gave a solubility of 79.6 mM.

same assay, conditions: 25.0 °C

Going from `CCCCCl` to `CCCC(C)=O`, the log10 OH rate constant (cm³/molecule/s) rises from -11.8 to -11.3.

Compared with `OCC(F)(F)C(F)(F)F`, `FC(F)(F)CC(F)(F)F` is lower in log10 OH rate constant (cm³/molecule/s): -13 for the first, -15 for the second.

First: FC(F)OC(F)(F)C(F)Cl (centres undefined)
Second: COC(F)(F)C(F)F
The log10 OH rate constant (cm³/molecule/s) of the first is lower: -13.9 for the first, -12.7 for the second.

Compared with `C=C(C)OC(C)=O`, `C=CCOC(C)=O` is lower in log10 OH rate constant (cm³/molecule/s): -10.2 for the first, -10.6 for the second.

Compared with `CNC(=O)OC`, `CC(C)c1ccc(NC(=O)N(C)C)cc1` is higher in log10 OH rate constant (cm³/molecule/s): -11.4 for the first, -10.9 for the second.

Going from `FC(F)(F)COCC(F)(F)F` to `OC(C(F)(F)F)C(F)(F)F`, the log10 OH rate constant (cm³/molecule/s) falls from -12.8 to -13.6.

Going from `Cc1ccccc1C` to `Cl[C@H]1[C@H](Cl)[C@@H](Cl)[C@@H](Cl)[C@H](Cl)[C@H]1Cl` (racemic), the log10 OH rate constant (cm³/molecule/s) falls from -10.9 to -12.8.

For `O=C/C=C/C=O`, the log10 OH rate constant (cm³/molecule/s) was -10.4.

same assay, conditions: 27.0 °C

Compound `Cc1ccc(C)o1` has a log10 OH rate constant (cm³/molecule/s) of -9.88.
